The results in this text go back to paper PMC4926365, “Expression and Characterization of a Novel Glycerophosphodiester Phosphodiesterase from Pyrococcus furiosus DSM 3638 That Possesses Lysophospholipase D Activity” (International Journal of Molecular Sciences, 2016).

Structures are written as SMILES.

This assay addresses T1, pfGDPD (Pyrococcus furiosus, UniProt Q8TZI9).
T1 construct: gene PF2003; full length 253 aa, no signal peptide; synthetic gene in pET28a, N- and C-terminal His6 tags kept; E. coli SHuffle T7; Ni-NTA; 34,059 Da
T1 sequence (Q8TZI9 1-253): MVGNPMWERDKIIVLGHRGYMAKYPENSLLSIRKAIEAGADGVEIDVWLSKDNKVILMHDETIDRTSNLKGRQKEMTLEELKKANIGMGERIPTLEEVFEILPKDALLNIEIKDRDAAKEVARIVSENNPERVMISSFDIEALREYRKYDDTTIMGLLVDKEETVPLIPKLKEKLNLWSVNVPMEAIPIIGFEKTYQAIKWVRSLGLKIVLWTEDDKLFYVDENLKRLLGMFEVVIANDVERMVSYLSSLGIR
The assay can be described thus: colorimetric p-nitrophenol release. The assay is classed as biochemical. Particulars: Mn2+ (best at 5 mM), 50 mM Tris-HCl pH 8.5, 55 °C.

For `O=[N+]([O-])c1ccc(OP(=O)(O)Oc2ccc([N+](=O)[O-])cc2)cc1` [bis(p-nitrophenyl) phosphate], the colorimetric p-nitrophenol release result was “The optimal temperature of recombinant pfGDPD was determined using BpNPP as substrate”.
